Laboratory results published in patent US8029764B2, “Methods for detection of colorectal cancer” (The Johns Hopkins University, priority 2001, dated 2011).

Tested on: colorectal tissue transcripts
Test: SAGE of normal, adenoma and cancer colorectal tissue (transcript tag counts)
Design: species or system human
Procedure, shortened: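 Tag counts reflect transcript abundance, each mRNA represented by a 15-base tag near its 3′ end. Excluding MHC tags, linkers and duplicate ditags, libraries were compared statistically: two each of normal epithelium, FAP-derived adenomas (>70% neoplastic) and carcinomas.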

[1] = normal colorectal tissue library 1
[2] = normal colorectal tissue library 2

Sequence | AD1 (SAGE tag count) (SAGE library AD1) | AD2 (SAGE tag count) (SAGE library AD2) | CA1 (SAGE tag count) (SAGE library CA1) | CA2 (SAGE tag count) (SAGE library CA2) | NC1 (SAGE tag count) (SAGE library NC1) | NC2 (SAGE tag count) (SAGE library NC2) | AD1 (SAGE tag count) (adenoma library 1) | AD2 (SAGE tag count) (adenoma library 2) | CA1 (SAGE tag count) (cancer library 1) | CA2 (SAGE tag count) (cancer library 2) | NC1 (SAGE tag count) [1] | NC2 (SAGE tag count) [2]
AGGCCAAGGG (chemistry not fully specified) | 3 | 1 | 3 | 4 | 21 | 6 |  |  |  |  |  | 
CCATTCCACT (chemistry not fully specified) | 2 | 0 | 0 | 0 | 13 | 1 |  |  |  |  |  | 
GCAGGAGGTG (chemistry not fully specified; the letters are possibly those of the target site) | 0 | 0 | 0 | 1 | 2 | 13 |  |  |  |  |  | 
CGTGGGTGGG (chemistry not fully specified) | 1 | 0 | 0 | 1 | 1 | 10 |  |  |  |  |  | 
GCACCCTTTC (chemistry not fully specified) | 0 | 0 | 1 | 0 | 13 | 5 |  |  |  |  |  | 
CTTACAAGCA (chemistry not fully specified) | 2 | 3 | 4 | 3 | 21 | 13 |  |  |  |  |  | 
GGCACCGTGC (chemistry not fully specified) | 8 | 10 | 8 | 4 | 22 | 44 |  |  |  |  |  | 
ATGGTCTACG (chemistry not fully specified) | 0 | 0 | 1 | 0 | 10 | 5 |  |  |  |  |  | 
CCGCTGCACT (chemistry not fully specified) | 55 | 46 | 37 | 30 | 127 | 102 |  |  |  |  |  | 
GGAGGCCGAG (chemistry not fully specified) | 5 | 0 | 2 | 5 | 13 | 9 |  |  |  |  |  | 
ACCCACGTCA (chemistry not fully specified) | 3 | 5 | 3 | 1 | 22 | 10 |  |  |  |  |  | 
GTAGCAGGTG (chemistry not fully specified) | 11 | 7 | 7 | 7 | 24 | 27 |  |  |  |  |  | 
TGACTAATTG (chemistry not fully specified) |  |  |  |  |  |  | 2 | 0 | 0 | 3 | 7 | 9
TGGCTACTTA (chemistry not fully specified) |  |  |  |  |  |  | 1 | 0 | 1 | 2 | 6 | 9
GCCAGACACC (chemistry not fully specified) | 3 | 4 | 1 | 2 | 19 | 9 |  |  |  |  |  | 
GACCAGCCCA (chemistry not fully specified) | 3 | 2 | 12 | 5 | 23 | 21 |  |  |  |  |  | 
CCCCCTGCAT (chemistry not fully specified) | 0 | 0 | 0 | 0 | 5 | 4 |  |  |  |  |  | 
AATCACAAAT (chemistry not fully specified) | 1 | 4 | 14 | 3 | 18 | 45 |  |  |  |  |  | 
CCCAACGCGC (chemistry not fully specified) | 3 | 5 | 0 | 2 | 106 | 1 |  |  |  |  |  | 

Sequence | AD1 (SAGE tag count) (SAGE library AD1) | AD2 (SAGE tag count) (SAGE library AD2) | CA1 (SAGE tag count) (SAGE library CA1) | CA2 (SAGE tag count) (SAGE library CA2) | NC1 (SAGE tag count) (SAGE library NC1) | NC2 (SAGE tag count) (SAGE library NC2) | AD1 (SAGE tag count) (adenoma library 1) | AD2 (SAGE tag count) (adenoma library 2) | CA1 (SAGE tag count) (cancer library 1) | CA2 (SAGE tag count) (cancer library 2) | NC1 (SAGE tag count) [1] | NC2 (SAGE tag count) [2]
CCAACACCAG (chemistry not fully specified) | 1 | 0 | 0 | 1 | 9 | 19 |  |  |  |  |  | 
TAGACTAGCA (chemistry not fully specified) |  |  |  |  |  |  | 6 | 6 | 22 | 4 | 31 | 27
GCCCAGGTCA (chemistry not fully specified) | 136 | 128 | 58 | 22 | 519 | 447 |  |  |  |  |  | 
GCCACGTGGA (chemistry not fully specified) | 5 | 2 | 7 | 1 | 19 | 16 |  |  |  |  |  | 
GTGGTGGCAG (chemistry not fully specified; the letters are possibly those of the target site) | 1 | 1 | 10 | 3 | 29 | 11 |  |  |  |  |  | 
CGGGAGTCGG (chemistry not fully specified) | 13 | 2 | 9 | 1 | 28 | 30 |  |  |  |  |  | 
TCAGAGCGCT (chemistry not fully specified) |  |  |  |  |  |  | 0 | 7 | 0 | 1 | 5 | 21
ATGCGGAGTC (chemistry not fully specified) | 5 | 3 | 2 | 4 | 14 | 13 |  |  |  |  |  | 
GTGGGGGCGC (chemistry not fully specified) | 2 | 0 | 1 | 0 | 5 | 22 |  |  |  |  |  | 
CTTCCAGCTA (chemistry not fully specified) | 22 | 20 | 14 | 19 | 64 | 31 |  |  |  |  |  | 
CCTCCAGTAC (chemistry not fully specified) | 2 | 3 | 2 | 4 | 20 | 8 |  |  |  |  |  | 
GCCACATACT (chemistry not fully specified) | 0 | 0 | 0 | 0 | 3 | 9 |  |  |  |  |  | 
ATGGCACGGA (chemistry not fully specified; the letters are possibly those of the target site) | 1 | 1 | 3 | 0 | 6 | 21 |  |  |  |  |  | 
GGGAAGCAGA (chemistry not fully specified) | 18 | 4 | 8 | 9 | 32 | 17 |  |  |  |  |  | 
TTAACCCCTC (chemistry not fully specified) |  |  |  |  |  |  | 5 | 9 | 1 | 5 | 34 | 14
TAAATTGCAA (chemistry not fully specified) |  |  |  |  |  |  | 8 | 17 | 5 | 3 | 103 | 59
CGGACTCACT (chemistry not fully specified) | 5 | 14 | 14 | 10 | 20 | 45 |  |  |  |  |  | 
GACATCAAGT (chemistry not fully specified) | 23 | 14 | 47 | 17 | 198 | 87 |  |  |  |  |  | 
